Assay results from ChEMBL document CHEMBL3612000, “Synthesis, leishmanicidal, trypanocidal and cytotoxic activity of quinoline-hydrazone hybrids” (Eur J Med Chem, 2015).
Converted amounts (≈) assume the structure as drawn. One block for each compound: values may come before it.

What was measured:
[1] = Selectivity index, ratio of LC50 for human U937 cells to EC50 for intracellular amastigotes of Trypanosoma cruzi Tulahuen; type: toxicity, cell-based, U-937
[2] = (§1) Cytotoxicity against human U937 cells assessed as cell viability after 72 hrs by MTT assay; type: cell-based, U-937; conditions: U937 cells, read-out: LC50
Leishmania panamensis [3] = assay: Leishmanicidal activity against intracellular amastigotes of Leishmania (Viannia) panamensis MHOM/CO/87/UA140pIR-GFP infected in human U937 cells assessed as decrease of intracellular parasite load at 20 ug/ml after 72 hrs; type: functional; conditions: U-937, 72 h
Trypanosoma cruzi [4] = assay: Trypanocidal activity against intracellular amastigotes of Trypanosoma cruzi Tulahuen infected in human U937 cells assessed as reduction of viability of intracellular amastigotes by measuring beta-galactosidase activity after 72 hrs by spectrophotometry analysis; type: functional, organism-based; conditions: U-937, 72 h
Trypanosoma cruzi [5] = assay: Trypanocidal activity against intracellular amastigotes of Trypanosoma cruzi Tulahuen infected in human U937 cells assessed as reduction of viability of intracellular amastigotes by measuring beta-galactosidase activity at 5 ug/ml after 72 hrs by spectrophotometry analysis; type: functional; conditions: U-937, 72 h
Trypanosoma cruzi [6] = assay: Trypanocidal activity against intracellular amastigotes of Trypanosoma cruzi Tulahuen infected in human U937 cells assessed as reduction of viability of intracellular amastigotes by measuring beta-galactosidase activity at 20 ug/ml after 72 hrs by spectrophotometry analysis; type: functional; conditions: U-937, 72 h
[7] = Selectivity index, ratio of LC50 for human U937 cells to EC50 for intracellular amastigotes of Leishmania (Viannia) panamensis MHOM/CO/87/UA140pIR-GFP; type: toxicity, cell-based, U-937
U-937 = assay: as §1; type: cell-based; conditions: u-937, 72 h, read-out: LC50 (the source's name)
Leishmania panamensis [8] = assay: Leishmanicidal activity against intracellular amastigotes of Leishmania (Viannia) panamensis MHOM/CO/87/UA140pIR-GFP infected in human U937 cells assessed as decrease of intracellular parasite load after 72 hrs; type: functional, organism-based, U-937
Leishmania panamensis [9] = assay: Leishmanicidal activity against intracellular amastigotes of Leishmania (Viannia) panamensis MHOM/CO/87/UA140pIR-GFP infected in human U937 cells assessed as decrease of intracellular parasite load at 10 ug/ml after 72 hrs; type: functional
Leishmania panamensis [10] = assay: Leishmanicidal activity against intracellular amastigotes of Leishmania (Viannia) panamensis MHOM/CO/87/UA140pIR-GFP infected in human U937 cells assessed as decrease of intracellular parasite load at 1 ug/ml after 72 hrs; type: functional; conditions: U-937, 72 h
Trypanosoma cruzi [11] = assay: Trypanocidal activity against intracellular amastigotes of Trypanosoma cruzi Tulahuen infected in human U937 cells assessed as reduction of viability of intracellular amastigotes by measuring beta-galactosidase activity at 10 ug/ml after 72 hrs by spectrophotometry analysis; type: functional; conditions: U-937, 72 h
Leishmania major = assay: Antileishmanial activity against Leishmania major; type: functional, organism-based
Leishmania panamensis [12] = assay: Leishmanicidal activity against intracellular amastigotes of Leishmania (Viannia) panamensis MHOM/CO/87/UA140pIR-GFP infected in human U937 cells assessed as decrease of intracellular parasite load at 5 ug/ml after 72 hrs; type: functional; conditions: U-937, 72 h
Leishmania panamensis [13] = assay: Leishmanicidal activity against intracellular amastigotes of Leishmania (Viannia) panamensis MHOM/CO/87/UA140pIR-GFP infected in human U937 cells assessed as decrease of intracellular parasite load at 0.05 ug/ml after 72 hrs; type: functional; conditions: U-937, 72 h
[14] = Leishmania panamensis, MHOM/CO/87/UA140pIR-GFP, U-937, 72 h, read-out: EC50

Compound: O=C(N/N=C/c1ccccc1O)c1ccc2ccccc2n1
selectivity ratio [1]: 11.6
CC50 at 72 h [2]: 56 µM
inhibition at 20 µg/mL (Leishmania panamensis [3]): 16.8%
EC50 (Trypanosoma cruzi [4]): 1.4 µg/mL (≈ 4.81 µM)
inhibition at 5 µg/mL (Trypanosoma cruzi [5]): 50.4%

Compound: O=C(N/N=C/c1cc(O)ccc1O)c1ccnc2ccccc12
CC50 at 72 h [2]: > 651 µM
inhibition at 20 µg/mL (Leishmania panamensis [3]): 26.1%
inhibition at 20 µg/mL (Trypanosoma cruzi [6]): 20.7%

Compound: MEGLUMINE ANTIMONATE [listing 1 of 2 here]
Ratio ([7]; u-937): 78.6
CC50 (U-937): 6 µM
EC50 (Leishmania panamensis [8]; u-937): 6.3 µg/mL

Compound: O=C(N/N=C/c1cccc(O)c1O)c1ccnc2ccccc12
inhibition at 10 µg/mL (Leishmania panamensis [9]; U-937, 72 h): 47.4%
CC50 at 72 h [2]: 47.5 µM
inhibition at 20 µg/mL (Trypanosoma cruzi [6]): 27.4%

Compound: O=C(Cn1ccnc1[N+](=O)[O-])NCc1ccccc1 [BENZNIDAZOLE]
selectivity ratio [1]: 17
EC50 (Trypanosoma cruzi [4]): 10.5 µg/mL (≈ 40.3 µM)
inhibition at 20 µg/mL (Trypanosoma cruzi [6]): 87.6%

Compound: O=C(N/N=C/c1cccc(O)c1O)c1ccc2ccccc2n1
selectivity ratio [7]: 4.7
CC50 at 72 h [2]: 99.6 µM
inhibition at 20 µg/mL (Leishmania panamensis [3]): 75.7%
EC50 (Leishmania panamensis [8]; [14]): 6.5 µg/mL (≈ 21.2 µM)
inhibition at 20 µg/mL (Trypanosoma cruzi [6]): 31%

Compound: O=C(N/N=C/c1ccc(O)cc1O)c1ccc2ccccc2n1
selectivity ratio [1]: 0.5
selectivity ratio [7]: 4.5
CC50 at 72 h [2]: 11.7 µM
inhibition at 1 µg/mL (Leishmania panamensis [10]): 64.7%
EC50 (Leishmania panamensis [8]; [14]): 0.8 µg/mL (≈ 2.6 µM)
EC50 (Trypanosoma cruzi [4]): 6.6 µg/mL (≈ 21.5 µM)
inhibition at 5 µg/mL (Trypanosoma cruzi [5]): 41.5%

Compound: O=C(N/N=C/c1ccc(O)c(O)c1O)c1ccc2ccccc2n1
selectivity ratio [7]: 4.6
CC50 at 72 h [2]: 221 µM
inhibition at 20 µg/mL (Leishmania panamensis [3]): 68.2%
EC50 (Leishmania panamensis [8]; [14]): 15.4 µg/mL (≈ 47.6 µM)
inhibition at 20 µg/mL (Trypanosoma cruzi [6]): 36.1%

Compound: O=C(N/N=C/c1ccc(O)cc1O)c1ccnc2ccccc12
selectivity ratio [1]: 0.5
CC50 at 72 h [2]: 34.5 µM
EC50 (Trypanosoma cruzi [4]): 20.8 µg/mL (≈ 67.7 µM)
inhibition at 10 µg/mL (Trypanosoma cruzi [11]): 27.7%

Compound: O=C(N/N=C/c1ccc(O)c(O)c1O)c1ccnc2ccccc12
CC50 at 72 h [2]: 347 µM
inhibition at 20 µg/mL (Leishmania panamensis [3]): 21.3%
inhibition at 20 µg/mL (Trypanosoma cruzi [6]): 15.7%

Compound: MEGLUMINE ANTIMONATE [listing 2 of 2 here]
inhibition (Leishmania panamensis [9]; U-937): 79.4%

IC50 (Leishmania major): 21 µM
Compound: CCN(CC)NC(=O)c1ccc(OCc2ccccc2)cc1

Compound: O=C(N/N=C/c1ccc(O)cc1O)c1nccc2ccccc12
inhibition at 5 µg/mL (Leishmania panamensis [12]): 62.6%
selectivity ratio [7]: 2.6
CC50 at 72 h [2]: 28.6 µM
EC50 (Leishmania panamensis [8]; [14]): 3.4 µg/mL (≈ 11.1 µM)

Compound: C[C@@H]1[C@H](O)[C@@H](C)/C=C/C=C/C=C/C=C/C=C/C=C/C=C/[C@H](O[C@@H]2O[C@H](C)[C@@H](O)[C@H](N)[C@@H]2O)C[C@@H]2O[C@](O)(C[C@@H](O)C[C@@H](O)[C@H](O)CC[C@@H](O)C[C@@H](O)CC(=O)O[C@H]1C)C[C@H](O)[C@H]2C(=O)O [AMPHOTERICIN B]
inhibition at 0.05 µg/mL (Leishmania panamensis [13]): 76%
selectivity ratio [7]: 1050
CC50 at 72 h [2]: 45.6 µM

Compound: O=C(N/N=C/c1cc(O)ccc1O)c1ccc2ccccc2n1
selectivity ratio [7]: 2.8
CC50 at 72 h [2]: 159 µM
inhibition at 20 µg/mL (Leishmania panamensis [3]): 64%
EC50 (Leishmania panamensis [8]; [14]): 37.2 µg/mL (≈ 121 µM)
inhibition at 20 µg/mL (Trypanosoma cruzi [6]): 24%
